System: Human patients with short bowel syndrome
Assay: Example 1: liver diagnostic biomarkers (total bilirubin, ALT, AST, ALP) in short bowel syndrome patients, every four weeks for 24 weeks
Assay type: in vivo
Design: AST (SGOT) Change from Baseline, Median / ALT (SGPT), Median / TOTAL BILIRUBIN, Median / TOTAL BILIRUBIN Change from Baseline, Median / ALT (SGPT) Change from Baseline, Median / AST (SGOT), Median: unit not given here
Protocol: Human patients with short bowel syndrome were divided into three groups: a control group (16 total individuals) to receive placebo, an experimental group (35 total individuals) to receive teduglutide at 0.05 mg/kg/day throughout the study, and an experimental group (32 total individuals) to receive teduglutide at 0.1 mg/kg/day throughout the study. Patients were treated by subcutaneous injection of placebo or the appropriate dose of teduglutide. As individuals with short bowel syndrome are likely to experience associated liver and kidney disease, known biomarkers of liver and kidney function were monitored every four weeks, for 24 weeks. The liver biomarkers tested included total bilirubin, ALT and AST and ALP. The kidney biomarkers tested included urea nitrogen, creatinine and GFR. Before administration of placebo or teduglutide, diagnostic biomarker levels were tested to establish a baseline for each individual.
To visualize the effect of GLP-2 on the levels of the diagnostic biomarkers, the average change from baseline was calculated for the placebo and teduglutide treated groups for each visit after a baseline was established. The average change from baseline of each group is depicted in FIGS. […]. The numerical figures for each diaanostic biomarker at each time point are depicted in Table 1.
The efficacy of teduglutide in treating liver dysfunction was further tested by sorting the data into two groups: individuals with abnormal baseline values of liver diagnostic biomarkers; and individuals with normal baseline values of liver diagnostic biomarkers. The mean diagnostic biomarker change from baseline for these two groups is shown for ALT (FIGS. 5 and 6) and AST (FIGS. 7 and 8). […] These changes were significant when compared to baseline levels for the group, and when compared to placebo (see FIGS. 5 and 7).
The raw data for this sorting is reproduced in Table 2 below.

SMILES: CC[C@H](C)[C@H](NC(=O)[C@H](Cc1ccccc1)NC(=O)[C@H](CC(=O)O)NC(=O)[C@H](CCCNC(=N)N)NC(=O)[C@H](C)NC(=O)[C@H](C)NC(=O)[C@H](CC(C)C)NC(=O)[C@H](CC(N)=O)NC(=O)[C@H](CC(=O)O)NC(=O)[C@H](CC(C)C)NC(=O)[C@@H](NC(=O)[C@@H](NC(=O)[C@H](CC(N)=O)NC(=O)[C@H](CCSC)NC(=O)[C@H](CCC(=O)O)NC(=O)[C@H](CC(=O)O)NC(=O)[C@H](CO)NC(=O)[C@H](Cc1ccccc1)NC(=O)[C@H](CO)NC(=O)CNC(=O)[C@H](CC(=O)O)NC(=O)CNC(=O)[C@@H](N)Cc1c[nH]cn1)[C@@H](C)O)[C@@H](C)CC)C(=O)N[C@@H](CC(N)=O)C(=O)N[C@@H](Cc1c[nH]c2ccccc12)C(=O)N[C@@H](CC(C)C)C(=O)N[C@H](C(=O)N[C@@H](CCC(N)=O)C(=O)N[C@H](C(=O)N[C@@H](CCCCN)C(=O)N[C@H](C(=O)N[C@H](C(=O)N[C@@H](CC(=O)O)C(=O)O)[C@@H](C)O)[C@@H](C)CC)[C@@H](C)O)[C@@H](C)CC [teduglutide]
- ALT (SGPT) Change from Baseline, Median (0.05 mg/kg/day, DW24): −5.0
- ALT (SGPT), Mean (SD) (0.05 mg/kg/day, DW24): 31.7 (26.63)
- ALT (SGPT), Median (0.05 mg/kg/day, DW24): 20.0
- AST (SGOT) Change from Baseline, Mean (SD) (0.05 mg/kg/day, DW24): −6.8 (14.29)
- AST (SGOT) Change from Baseline, Median (0.05 mg/kg/day, DW24): −4.5
- AST (SGOT), Mean (SD) (0.05 mg/kg/day, DW24): 27.7 (10.23)
- AST (SGOT), Median (0.05 mg/kg/day, DW24): 25.0
- TOTAL BILIRUBIN Change from Baseline, Mean (SD) (0.05 mg/kg/day, DW24): −0.5 (7.11)
- TOTAL BILIRUBIN Change from Baseline, Median (0.05 mg/kg/day, DW24): 0.0
- TOTAL BILIRUBIN, Mean (SD) (0.05 mg/kg/day, DW24): 10.0 (6.28)
- TOTAL BILIRUBIN, Median (0.05 mg/kg/day, DW24): 8.0
- ALKALINE PHOSPHATASE Change from Baseline, Mean (SD) (0.10 mg/kg/day, DW4): −11.3 (32.19)
- ALKALINE PHOSPHATASE Change from Baseline, Median (0.10 mg/kg/day, DW4): −10.5
- ALKALINE PHOSPHATASE, Mean (SD) (0.10 mg/kg/day, DW4): 147.5 (74.98)
- ALKALINE PHOSPHATASE, Median (0.10 mg/kg/day, DW4): 124.0
- ALT (SGPT) Change from Baseline, Mean (SD) (0.10 mg/kg/day, DW4): −11.6 (22.98)
- ALT (SGPT) Change from Baseline, Median (0.10 mg/kg/day, DW4): −6.5
- ALT (SGPT), Mean (SD) (0.10 mg/kg/day, DW4): 38.6 (23.30)
- ALT (SGPT), Median (0.10 mg/kg/day, DW4): 30.0
- AST (SGOT) Change from Baseline, Mean (SD) (0.10 mg/kg/day, DW4): −7.3 (15.21)
- AST (SGOT) Change from Baseline, Median (0.10 mg/kg/day, DW4): −5.0
- AST (SGOT), Mean (SD) (0.10 mg/kg/day, DW4): 33.5 (17.00)
- AST (SGOT), Median (0.10 mg/kg/day, DW4): 28.0
- TOTAL BILIRUBIN Change from Baseline, Mean (SD) (0.10 mg/kg/day, DW4): −4.0 (17.41)
- TOTAL BILIRUBIN Change from Baseline, Median (0.10 mg/kg/day, DW4): −1.0
- TOTAL BILIRUBIN, Mean (SD) (0.10 mg/kg/day, DW4): 9.0 (5.65)
- TOTAL BILIRUBIN, Median (0.10 mg/kg/day, DW4): 7.0
- ALKALINE PHOSPHATASE Change from Baseline, Mean (SD) (0.10 mg/kg/day, DW8): −21.2 (41.41)
- ALKALINE PHOSPHATASE Change from Baseline, Median (0.10 mg/kg/day, DW8): −20.0
- ALKALINE PHOSPHATASE, Mean (SD) (0.10 mg/kg/day, DW8): 139.2 (75.84)
- ALKALINE PHOSPHATASE, Median (0.10 mg/kg/day, DW8): 114.0
- ALT (SGPT) Change from Baseline, Mean (SD) (0.10 mg/kg/day, DW8): −15.7 (26.87)
- ALT (SGPT) Change from Baseline, Median (0.10 mg/kg/day, DW8): −8.0
- ALT (SGPT), Mean (SD) (0.10 mg/kg/day, DW8): 34.1 (19.74)
- ALT (SGPT), Median (0.10 mg/kg/day, DW8): 28.5
- AST (SGOT) Change from Baseline, Mean (SD) (0.10 mg/kg/day, DW8): −10.3 (16.56)
- AST (SGOT) Change from Baseline, Median (0.10 mg/kg/day, DW8): −5.0
- AST (SGOT), Mean (SD) (0.10 mg/kg/day, DW8): 29.3 (12.52)
- AST (SGOT), Median (0.10 mg/kg/day, DW8): 28.0
- TOTAL BILIRUBIN Change from Baseline, Mean (SD) (0.10 mg/kg/day, DW8): −3.8 (13.91)
- TOTAL BILIRUBIN Change from Baseline, Median (0.10 mg/kg/day, DW8): −1.0
- TOTAL BILIRUBIN, Mean (SD) (0.10 mg/kg/day, DW8): 9.4 (9.80)
- TOTAL BILIRUBIN, Median (0.10 mg/kg/day, DW8): 7.0
- ALKALINE PHOSPHATASE Change from Baseline, Mean (SD) (0.10 mg/kg/day, DW12): −13.1 (55.43)
- ALKALINE PHOSPHATASE Change from Baseline, Median (0.10 mg/kg/day, DW12): −16.5
- ALKALINE PHOSPHATASE, Mean (SD) (0.10 mg/kg/day, DW12): 145.9 (83.34)
- ALKALINE PHOSPHATASE, Median (0.10 mg/kg/day, DW12): 115.0
- ALT (SGPT) Change from Baseline, Mean (SD) (0.10 mg/kg/day, DW12): −10.6 (30.82)
- ALT (SGPT) Change from Baseline, Median (0.10 mg/kg/day, DW12): −11.0
- ALT (SGPT), Mean (SD) (0.10 mg/kg/day, DW12): 40.4 (22.11)
- ALT (SGPT), Median (0.10 mg/kg/day, DW12): 35.0
- AST (SGOT) Change from Baseline, Mean (SD) (0.10 mg/kg/day, DW12): −3.3 (21.39)
- AST (SGOT) Change from Baseline, Median (0.10 mg/kg/day, DW12): −3.5
- AST (SGOT), Mean (SD) (0.10 mg/kg/day, DW12): 36.4 (20.41)
- AST (SGOT), Median (0.10 mg/kg/day, DW12): 31.5
- TOTAL BILIRUBIN Change from Baseline, Mean (SD) (0.10 mg/kg/day, DW12): −2.9 (12.93)
- TOTAL BILIRUBIN Change from Baseline, Median (0.10 mg/kg/day, DW12): 0.0
- TOTAL BILIRUBIN, Mean (SD) (0.10 mg/kg/day, DW12): 10.3 (11.39)
- TOTAL BILIRUBIN, Median (0.10 mg/kg/day, DW12): 7.0
- ALKALINE PHOSPHATASE Change from Baseline, Mean (SD) (0.10 mg/kg/day, DW16): −21.3 (59.79)
- ALKALINE PHOSPHATASE Change from Baseline, Median (0.10 mg/kg/day, DW16): −20.5
- ALKALINE PHOSPHATASE, Mean (SD) (0.10 mg/kg/day, DW16): 137.7 (81.33)
- ALKALINE PHOSPHATASE, Median (0.10 mg/kg/day, DW16): 108.5
- ALT (SGPT) Change from Baseline, Mean (SD) (0.10 mg/kg/day, DW16): −10.0 (35.59)
- ALT (SGPT) Change from Baseline, Median (0.10 mg/kg/day, DW16): −10.0
- ALT (SGPT), Mean (SD) (0.10 mg/kg/day, DW16): 39.7 (27.97)
- ALT (SGPT), Median (0.10 mg/kg/day, DW16): 30.0
- AST (SGOT) Change from Baseline, Mean (SD) (0.10 mg/kg/day, DW16): −6.6 (22.80)
- AST (SGOT) Change from Baseline, Median (0.10 mg/kg/day, DW16): −4.0
- AST (SGOT), Mean (SD) (0.10 mg/kg/day, DW16): 33.0 (16.71)
- AST (SGOT), Median (0.10 mg/kg/day, DW16): 30.0
- TOTAL BILIRUBIN Change from Baseline, Mean (SD) (0.10 mg/kg/day, DW16): −3.6 (14.89)
- TOTAL BILIRUBIN Change from Baseline, Median (0.10 mg/kg/day, DW16): −0.5
- TOTAL BILIRUBIN, Mean (SD) (0.10 mg/kg/day, DW16): 9.8 (9.14)
- TOTAL BILIRUBIN, Median (0.10 mg/kg/day, DW16): 7.5
- ALKALINE PHOSPHATASE Change from Baseline, Mean (SD) (0.10 mg/kg/day, DW20): −18.5 (63.67)
- ALKALINE PHOSPHATASE Change from Baseline, Median (0.10 mg/kg/day, DW20): −23.0
- ALKALINE PHOSPHATASE, Mean (SD) (0.10 mg/kg/day, DW20): 137.1 (82.59)
- ALKALINE PHOSPHATASE, Median (0.10 mg/kg/day, DW20): 107.0
- ALT (SGPT) Change from Baseline, Mean (SD) (0.10 mg/kg/day, DW20): −8.2 (37.70)
- ALT (SGPT) Change from Baseline, Median (0.10 mg/kg/day, DW20): −9.0
- ALT (SGPT), Mean (SD) (0.10 mg/kg/day, DW20): 41.3 (29.36)
- ALT (SGPT), Median (0.10 mg/kg/day, DW20): 29.0
- AST (SGOT) Change from Baseline, Mean (SD) (0.10 mg/kg/day, DW20): −4.9 (24.96)
- AST (SGOT) Change from Baseline, Median (0.10 mg/kg/day, DW20): −2.5
- AST (SGOT), Mean (SD) (0.10 mg/kg/day, DW20): 34.9 (19.82)

From patent publication US20130072430A1, “METHODS FOR TREATMENT OR PROPHYLAXIS OF KIDNEY OR LIVER DYSFUNCTION” (NPS PHARMACEUTICALS, INC., priority 2010, published 2013)
